A value given as a limit tells only on which side of the number the result lay.

The first series has as its system 24-hydroxylase. Nature of the series: kidney 24-hydroxylase gene expression in athymic nude mice (RT-PCR). The series is classed as in vivo. The following applies: four doses, oral gavage every other day for 14 days; FIG. 2. On the procedure: A (three day) effective dose study was conducted on normal BALB/c mice in order to select a compound for the athymic nude mice study described below. Two-week old male Balb/c mice (Harlan) were weighed and sorted into groups of six according to Day-1 weight. Animals were given a standard diet and housed under normal lighting conditions. Compounds were administered in sesame oil vehicle with 4% ethanol. Ethanol was removed by evaporation by sparging with nitrogen prior to dosing orally by gavage via a 1 cc syringe with a 20 G disposable feeding needle (0.1 mL dose volume). Dosing was daily for three days, with animal weights measured on Days 0, 1 and 3. […] Animal weights were monitored on Day 3, 7, 10 and 14. […] The RT reactions were performed in a DNA Engine thermal cycler (PTC-200, MJ Research) (50° C. 30 minutes; 72° C. 5 minutes) Real-Time Quantitative PCR was performed in a 384 well assay plate using the Prism 7900HT (ABI) using the entire product from the reverse transcription reaction above (5 uL). […] Results were analyzed using the data analysis and software packet (SDS) provided with the instrumentation. FIG. 1 compares the effect of 1α,25-dihydroxyvitamin D3, against four different doses of one selected compound of the current invention, Compound B on plasma calcium levels in athymic nude mice at Day 14 measured 3 hours after final dose. […]
For `CCC(CC)(c1ccc(C#CC(O)C(C)(C)C)c(C)c1)c1ccc(OC[C@@H](O)CO)c(C)c1` (single isomer, unassigned) [compound B], the “RNA expression of kidney 24-hydroxylase (relative to cyclophilin)” value is reported as “dose responsive increase”.

For the next series, the target named is T1, VDR (Homo sapiens, UniProt P11473).
T1 construct: expressed in transfected cells; host or cells: CV-1 (African green monkey kidney cells), transient transfection
T1 sequence (P11473 92-425): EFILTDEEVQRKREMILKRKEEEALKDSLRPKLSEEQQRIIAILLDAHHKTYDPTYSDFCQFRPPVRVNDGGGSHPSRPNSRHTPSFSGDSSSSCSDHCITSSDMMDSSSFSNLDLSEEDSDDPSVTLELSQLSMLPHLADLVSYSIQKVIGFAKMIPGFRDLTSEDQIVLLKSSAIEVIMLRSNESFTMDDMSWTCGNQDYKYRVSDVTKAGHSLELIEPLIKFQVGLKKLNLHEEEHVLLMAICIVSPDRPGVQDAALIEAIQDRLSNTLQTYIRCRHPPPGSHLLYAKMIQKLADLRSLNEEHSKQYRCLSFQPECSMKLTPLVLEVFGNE
T1 sequence (Q15788 381-891 partner limits assumed): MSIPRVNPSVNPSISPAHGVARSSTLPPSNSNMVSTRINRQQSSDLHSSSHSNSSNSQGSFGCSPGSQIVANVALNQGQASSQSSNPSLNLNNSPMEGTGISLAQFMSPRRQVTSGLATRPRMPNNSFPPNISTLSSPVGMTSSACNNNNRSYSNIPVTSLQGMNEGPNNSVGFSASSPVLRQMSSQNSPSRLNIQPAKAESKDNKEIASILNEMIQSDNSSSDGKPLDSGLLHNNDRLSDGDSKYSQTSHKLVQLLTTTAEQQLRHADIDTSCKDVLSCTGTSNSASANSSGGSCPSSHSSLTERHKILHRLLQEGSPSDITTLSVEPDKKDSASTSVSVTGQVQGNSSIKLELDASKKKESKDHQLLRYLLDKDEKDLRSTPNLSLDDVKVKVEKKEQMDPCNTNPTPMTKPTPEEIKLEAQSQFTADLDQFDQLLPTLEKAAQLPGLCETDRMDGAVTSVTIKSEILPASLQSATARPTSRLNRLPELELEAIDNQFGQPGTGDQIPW
Briefly: modified mammalian two-hybrid assay (VDR / SRC-1 interaction, luciferase reporter). The series is classed as cell-based. The following applies: CV-1 cells, exemplary compounds, read-out: agonist activity EC50. The protocol: Compound activity was determined using a modified mammalian two-hybrid assay, using the interaction of VDR to the co-factor SRC-1 to monitor receptor activation.
Following incubation with transfection reagents for 5 hours at 37° C., transfected cells were trypsinized, centrifuged, resuspended in media and added to the assay plates, (45 μl, 5000 cells per well). The assay plates containing both compounds and screening cells were incubated for approximately 20 hours at 37° C. in a tissue culture incubator.
After incubation of the transfected cells with compounds, media was aspirated and lysis buffer (1% Triton X 100, 10% Glycerol, 5 mM Dithiothreitol,1 mM EGTA, 25 mM Tricine pH 7.8) added.
Regarding `Cc1cc(C(c2ccccc2)(c2ccc(OCC(O)C(C)(C)C)c(C)c2)C(F)(F)F)ccc1OCC(O)CO` (stereo not drawn) [3-(2-Methyl-4-{2,2,2-trifluoro-1-[4-(2-hydroxy-3,3-dimethyl-butoxy)-3-methyl-phenyl]-1-phenyl-ethyl}-phenoxy)-propane-1,2-diol], the EC50 was below 10 µM.

With `CCC(O)(CC)CCc1ccc(C(CC)(CC)c2ccc(OC[C@@H](O)CO)c(C)c2)cc1C` [3-(4-{1-ethyl-1-[4-(3-ethyl-3-hydroxypentyl)-3-methylphenyl]-propyl}-2-methyl-phenoxy)-propane-1,2(S)-diol], the EC50 is below 10 µM.

`CCC(CC)(c1ccc(CCC(C)(C)O)c(C)c1)c1ccc(OC[C@@H](O)CO)c(C)c1` [3-(4-{1-ethyl-1-[4-(3-hydroxy-3-methylbutyl)-3-methylphenyl]-propyl}-2-methylphenoxy)-propane 1,2(S)-diol]: the EC50 is below 10 µM.

With `CCC(CC)(c1ccc(CCC(O)C(C)(C)C)cc1)c1ccc(OC[C@@H](O)CO)c(C)c1` (stereo partly drawn) [3-(4-{1-Ethyl-1-[4-(3-hydroxy-4,4-dimethylpentyl)-phenyl]-propyl}-2-methylphenoxy)-propane-1,2(S)-diol], the EC50 was below 10 µM.

Regarding `CCC(CC)(c1ccc(/C=C\C(O)C(C)(C)C)c(C)c1)c1ccc(OC[C@@H](O)CO)c(C)c1` (stereo partly drawn) [(Z)-3-(4-{1-ethyl-1-[4-(3-hydroxy-4,4-dimethylpent-1-enyl)-3-methylphenyl]-propyl}-2-methylphenoxy)-propane-1,2(S)-diol], the EC50 is below 10 µM.

As for `Cc1cc(C(c2ccccc2)(c2ccc(OCC(O)C(C)(C)C)c(C)c2)C(F)(F)C(F)(F)F)ccc1OCC(O)CO` (stereo not drawn) [3-(2-Methyl-4-{2,2,3,3,3-pentafluoro-1-[4-(2-hydroxy-3,3-dimethyl-butoxy)-3-methyl-phenyl]-1-phenyl-propyl}-phenoxy)-propane-1,2-diol], the EC50 is below 10 µM.

On to `CC(=O)N1CCC(c2ccc(OCC(=O)C(C)(C)C)c(C)c2)(c2ccc(OCC(=O)C(C)(C)C)c(C)c2)CC1` [1-(4-{1-Acetyl-4-[4-(3,3-dimethyl-2-oxo-butoxy)-3-methyl-phenyl]-piperidin-4-yl}-2-methyl-phenoxy)-3,3-dimethyl-butan-2-one], for which the EC50 is below 10 µM.

Tested on in a further series: not listed separately
Briefly: plasma calcium determination in athymic nude mice. The conditions noted are these: four doses, oral gavage every other day for 14 days, Day 14; FIG. 1. Type of series: in vivo. The protocol: A (three day) effective dose study was conducted on normal BALB/c mice in order to select a compound for the athymic nude mice study described below. Two-week old male Balb/c mice (Harlan) were weighed and sorted into groups of six according to Day-1 weight. Animals were given a standard diet and housed under normal lighting conditions. Compounds were administered in sesame oil vehicle with 4% ethanol. Ethanol was removed by evaporation by sparging with nitrogen prior to dosing orally by gavage via a 1 cc syringe with a 20 G disposable feeding needle (0.1 mL dose volume). Dosing was daily for three days, with animal weights measured on Days 0, 1 and 3. […] Animal weights were monitored on Day 3, 7, 10 and 14. […]
Calcium determination was carried out in a micronized plate format with heparinized plasma samples utilizing a colorimetric assay (Sigma 588-3). […] When present in an acidic medium, the calcium Arsenazo complex forms a purple color that was determined using a standard plate reader at […] against a standard curve.
FIG. 1 compares the effect of 1α,25-dihydroxyvitamin D3, against four different doses of one selected compound of the current invention, Compound B on plasma calcium levels in athymic nude mice at Day 14 measured 3 hours after final dose. Dosage is measured in μg/kg and plasma calcium levels are in mg/dl. […]
`CCC(CC)(c1ccc(C#CC(O)C(C)(C)C)c(C)c1)c1ccc(OC[C@@H](O)CO)c(C)c1` (single isomer, unassigned) [compound B]: the plasma calcium concentration entry is given as “without elevating plasma calcium concentration”.

(Values after patent US7863298B2, “Bridged ring structures as pharmaceutical agents” (Exelixis, Inc., priority 2003, dated 2011).)
